± gives the standard deviation of the averaged measurements.
Assays:
[1] = tested on: U-2 OS; test: intracellular GSH:GSSG ratio (calculated); higher = more reduced glutathione pool; settings: 24 h
Method: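 Intracellular glutathione in U-2 OS cells after 24 h compound treatment at 5, 10 and 20 uM (some at 40 and 80 uM). Total glutathione and GSSG were measured with the GSH/GSSG-Glo kit, and the GSH:GSSG ratio was calculated. Mean of five technical replicate plates.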

[2] = tested on: U-2 OS; test: cell viability (CellTiter-Glo) relative to DMSO (% of control); higher = more viable; settings: 24 h
Method: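 Cell viability of U-2 OS cells by CellTiter-Glo after 24 h compound treatment at 5, 10 and 20 uM (some at 40 and 80 uM), measured in parallel with the glutathione assay, as percent of DMSO control. Five technical replicate plates, averaged.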

[3] = tested on: U-2 OS; test: total intracellular glutathione (GSH + GSSG) relative to DMSO (% of control); higher = more glutathione; settings: 24 h
Method: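 Total intracellular glutathione (GSH + GSSG) in U-2 OS cells by GSH/GSSG-Glo after 24 h compound treatment at 5, 10 and 20 uM (some at 40 and 80 uM), as percent of DMSO control. Five technical replicate plates, averaged.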

[4] = tested on: U-2 OS; test: cell painting activity score (Mahalanobis distance from DMSO wells); higher = stronger morphological phenotype; settings: 24 h
Summary of the method: (§1)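 Using 384-well plates holding about 1,500 U-2 OS cells per well, treatment was applied by pin tool for 24 h at 37 °C, generally at six 2-fold concentrations ranging from 20 μM to 625 nM. Staining with MitoTracker, concanavalin A, phalloidin, wheat germ agglutinin, Hoechst and SYTO 14 preceded Opera Phenix imaging and CellProfiler feature extraction against DMSO cells on the same plate. Activity score and cell count are both referenced to DMSO wells, the former as a Mahalanobis distance. Four replicate plates were averaged for every value.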

[5] = tested on: U-2 OS; test: relative cell count vs DMSO (cell painting) (fraction of DMSO control); higher = more cells remaining (less cytotoxic); settings: 24 h
Summary of the method: as §1

[6] = tested on: U-2 OS; test: AUC of culture confluence over time (live-cell imaging) (AUC (confluence % x time)); higher = more confluent culture (less growth inhibition)
Summary of the method: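 Each value is the area under a curve of confluence over time for U-2 OS cells. The cells, in F-12K medium with 10% FBS, were plated at 750 per well in 384-well plates and dosed by pin tool 24 h later, most compounds at 20, 10 and 5 μM with 0.2% DMSO. They were held at 37 °C and imaged every 4 h for up to 60 h.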

Row | SMILES | intracellular GSH:GSSG ratio ([1]; 5 µM) | intracellular GSH:GSSG ratio ([1]; 10 µM) | intracellular GSH:GSSG ratio ([1]; 20 µM) | cell viability ([2]; 5 µM) | cell viability ([2]; 10 µM) | cell viability ([2]; 20 µM) | total intracellular glutathione ([3]; 5 µM) | total intracellular glutathione ([3]; 10 µM) | total intracellular glutathione ([3]; 20 µM) | cell painting activity score ([4]; 0.625 µM) | cell painting activity score ([4]; 1.25 µM) | cell painting activity score ([4]; 2.5 µM) | cell painting activity score ([4]; 5 µM) | cell painting activity score ([4]; 10 µM) | cell painting activity score ([4]; 20 µM) | relative cell count ([5]; 0.625 µM) | relative cell count ([5]; 1.25 µM) | relative cell count ([5]; 2.5 µM) | relative cell count ([5]; 5 µM) | relative cell count ([5]; 10 µM) | relative cell count ([5]; 20 µM) | intracellular GSH:GSSG ratio ([1]; 40 µM) | intracellular GSH:GSSG ratio ([1]; 80 µM) | cell viability ([2]; 40 µM) | cell viability ([2]; 80 µM) | cell painting activity score ([4]; 40 µM) | cell painting activity score ([4]; 80 µM) | relative cell count ([5]; 40 µM) | relative cell count ([5]; 80 µM) | AUC of culture confluence over time ([6]; 5 µM) | AUC of culture confluence over time ([6]; 10 µM) | AUC of culture confluence over time ([6]; 20 µM) | AUC of culture confluence over time ([6]; 40 µM) | AUC of culture confluence over time ([6]; 80 µM)
1 | C[C@@H]1CC[C@@]2(OC1)O[C@H]1[C@@H](O)[C@H]3[C@@H]4CC[C@H]5C[C@@H](O[C@@H]6O[C@H](CO)[C@H](O[C@@H]7O[C@H](CO)[C@@H](O)[C@H](O[C@@H]8OC[C@@H](O)[C@H](O)[C@H]8O)[C@H]7O[C@@H]7O[C@H](CO)[C@H](O)[C@H](O[C@@H]8O[C@H](CO)[C@@H](O)[C@H](O)[C@H]8O)[C@H]7O)[C@H](O)[C@H]6O)[C@H](O)C[C@]5(C)[C@H]4CC[C@]3(C)[C@H]1[C@@H]2C | 13.7 | 20.4 | 11.7 | 64.5 ± 5.7 | 36.8 ± 12 | 8.23 ± 3.5 | 76.2 ± 7.3 | 45.1 ± 18 | 21 ± 4.2 | 7.99 | 7.32 | 7.71 | 8.51 | 13.6 | 28.6 | 0.85 | 0.742 | 0.753 | 0.19 | 0.117 | 0.0498 |  |  |  |  |  |  |  |  |  |  |  |  | 
2 | C=CC(=O)N1CCN(c2ncnc3c(F)c(-c4c(O)cccc4F)c(Cl)cc23)CC1 | 18.9 | 16.4 | 11.6 | 91.3 ± 4.4 | 89.2 ± 6.2 | 100 ± 6.9 | 105 ± 3.9 | 104 ± 3.3 | 102 ± 3.2 | 10.3 | 8.82 | 11.4 | 11 | 11.8 | 16 | 0.691 | 0.719 | 0.571 | 0.555 | 0.531 | 0.516 |  |  |  |  |  |  |  |  |  |  |  |  | 
3 | O=C1CC(Sc2nnnn2-c2ccccc2)C(=O)N1c1ccc([N+](=O)[O-])cc1 (centres undefined) | 26 | 17 | 7.14 | 102 ± 5.5 | 104 ± 5.8 | 46.2 ± 11 | 117 ± 6.5 | 122 ± 5.5 | 61.8 ± 13 | 4.41 | 4.65 | 4.9 | 6.88 | 12.5 | 18.1 | 1.06 | 1.07 | 1.12 | 1.01 | 0.828 | 0.677 |  |  |  |  |  |  |  |  |  |  |  |  | 
4 | COc1cc(/C=C/c2cc(/C=C/c3ccc(O)c(OC)c3)n(-c3ccc(C(=O)[O-])cc3)n2)ccc1O.[Na+] | 40 | 33 | 36.1 | 101 ± 2.3 | 95.6 ± 2.5 | 93.6 ± 3.2 |  |  |  | 7.1 | 4.98 | 6.19 | 4.45 | 6.38 | 6.87 | 1.04 | 1.08 | 1.05 | 1.07 | 1.09 | 1.05 | 30.8 | 11.8 | 89.6 ± 3.4 | 68.4 ± 3.8 | 5.98 | 9 | 0.866 | 0.789 | 45.1 | 42.2 | 42.1 | 27.3 | 25.3

— the supplement of paper PMC10011410
